# What was measured:
# human A2a receptor = human A2a receptor (Homo sapiens, UniProt P29274); assay: Adenosine antagonistic activity: radioligand binding with [3H]CGS 21680 (20 nM)
# Protocol: (§1) The adenosine antagonistic activity [Ki(nM)] of the test compound was examined by radioligand binding techniques using 8-cyclopentyl-1,3-dipropylxanthine, [dipropyl-2,3-^3H (N)] ([^3H]DPCPX, 4.5 nM) for human A1 receptor and [^3H]CGS 21680 (20 nM) for human A2a receptor.
# human A1 receptor = target: T1, human A1 receptor (Homo sapiens, UniProt P30542); assay: Adenosine antagonistic activity: radioligand binding with [3H]DPCPX (4.5 nM)
# T1 sequence (P30542 1-326): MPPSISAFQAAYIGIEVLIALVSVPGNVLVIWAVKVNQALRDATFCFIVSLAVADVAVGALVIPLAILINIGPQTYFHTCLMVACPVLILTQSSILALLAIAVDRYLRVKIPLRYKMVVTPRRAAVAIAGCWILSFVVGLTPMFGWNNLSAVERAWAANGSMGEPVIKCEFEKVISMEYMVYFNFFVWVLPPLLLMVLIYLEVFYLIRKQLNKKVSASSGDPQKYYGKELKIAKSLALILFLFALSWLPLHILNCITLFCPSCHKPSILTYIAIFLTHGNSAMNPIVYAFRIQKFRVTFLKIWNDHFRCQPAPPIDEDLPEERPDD
# Protocol: as §1
# ddY mice = assay: Anticatalepsy activity in mouse (haloperidol-induced catalepsy, bar test); assay type: in vivo; conditions: test compound 3.2 mg/kg orally, ddY mice (n=7); haloperidol 0.32 mg/kg i.p. 30 min later; measured 30 min after injection
# Protocol: The test compound (3.2 mg/kg) was administered orally with ddY mice (n=7). Then, haloperidol (0.32 mg/kg) was injected intraperitoneally 30 min. after the administration of the compound. Thirty min. After the injection, the cataleptic responses of mice were measured. The forelimbs of each mouse were placed on a 3 cm high, 3 mm wide horizontal bar, and the duration of cataleptic posture was measured for up to 30 sec.
# Sequence of human A2a receptor (P29274 whole entry): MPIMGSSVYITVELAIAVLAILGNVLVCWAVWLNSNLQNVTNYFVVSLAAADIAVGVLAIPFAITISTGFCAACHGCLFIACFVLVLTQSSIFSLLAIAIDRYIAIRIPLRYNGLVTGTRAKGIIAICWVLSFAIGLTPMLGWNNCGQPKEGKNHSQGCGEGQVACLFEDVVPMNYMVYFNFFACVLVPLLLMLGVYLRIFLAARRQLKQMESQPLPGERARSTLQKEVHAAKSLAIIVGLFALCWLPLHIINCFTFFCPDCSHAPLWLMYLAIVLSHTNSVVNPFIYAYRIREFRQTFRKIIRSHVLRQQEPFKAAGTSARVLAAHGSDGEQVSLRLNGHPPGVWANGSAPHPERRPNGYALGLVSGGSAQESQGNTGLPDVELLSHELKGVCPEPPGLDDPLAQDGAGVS
Ki (human A2a receptor),melting point,Ki (human A1 receptor),Structure (SMILES),Manifestation rate of catalepsy (number of mouse) (ddY mice)
2.7 nM,212 to 213 °C,0.46 nM,"CC(C)n1nc(-c2cc(-c3ccn[nH]3)cnc2-c2ccccc2)ccc1=O [Example 24, 2-isopropyl-6-[2-phenyl-5-(pyrazol-5-yl)-3-pyridyl]-3(2H)-pyridazinone]",0/7
0.65 nM,197 to 198 °C,0.56 nM,"CC(C)n1nc(-c2cc(C#N)c(N)nc2-c2ccccc2)ccc1=O [Example 3, 2-Amino-5-(1-isopropyl-6-oxo-1,6-dihydro-3-pyridazinyl)-6-phenylnicotinonitrile]",0/7
1.24 nM,207 to 208 °C,0.31 nM,"CC(C)n1nc(-c2cc(NC(=O)c3ccccc3)cnc2-c2ccccc2)ccc1=O [Example 27, N-[5-(1-isopropyl-6-oxo-1,6-dihydro-3-pyridazinyl)-6-phenyl-3-pyridyl]benzamide]",0/7
2.06 nM,–,1.99 nM,"CC(C)n1cc(-c2cc(Cl)c(N)nc2-c2ccccc2)cc(Cl)c1=O [Example 119, 6′-Amino-5,5′-dichloro-1-isopropyl-2′-phenyl-3,3′-bipyridin-6(1H)-one]",0/7
